{
  "source": "patent US20060240402A1",
  "about": "“Marine invertebrate gametes and embryos as an assay system for therapeutic screening” (priority 2005, published 2006)",
  "key": {"mouse xenograft models": {"tested_on": "mouse xenograft models", "settings": "cited from earlier work"}, "Spisula oocytes": {"tested_on": "Spisula oocytes", "experiment": "Whole egg germinal vesicle breakdown (GVBD) and spindle assembly assay", "assay_type": "cell-based, Spisula solidissima", "procedure": "Oocytes are prepared as generally described in Allen R D. (1953) Biol Bull. 105:213-239; Palazzo, R. E., Vaisberg, E., Cole, R. W. and Rieder, C. L. (1992) Science. 256: 219-221; Vogel, J. M., Stearns, T., Rieder, C. L. and Palazzo, R. E. (1997) J. Cell Biol. 137: 193-202; and Schnackenberg, B. J. and Palazzo, R. E. (1999) Biology of the Cell. 91: 429-438.\n(§1) Briefly, adult Spisula or Mulinia are collected from the Atlantic Ocean, often by the Marine Resources Department of the Marine Biological Laboratory (Woods Hole, Mass.) or from commercial fisherman and maintained in flow-through sea water tanks at ˜13° C. containing artificial sea water (ASW). Oocytes are then dissected from ripe ovaries, passed through cheese cloth, and washed in sea water by three cycles of suspension/sedimentation. Oocytes are then activated by treatment with KCl for 4 min, and lysates are prepared as previously described by Palazzo et al. (Palazzo, R. E., J. B. Brawley, and L. I. Rebhun (1988). Zool. Sci. (Tokyo). 5: 603-611).\n(§2) Aster formation in oocytes, embryos, and lysates is assessed with polarized light microscopy by adding 3% hexylene glycol to small aliquots and warming to 24° C. (Palazzo, R. E., J. B. Brawley, and L. I. Rebhun (1988). Zool. Sci. (Tokyo). 5: 603-611). The remaining lysate is aliquoted, snap frozen, and stored at −80° C. Frozen lysates retain the ability to assemble asters after years of storage.\nIn one embodiment of the invention, oocyte activation to induce GVBD, aster formation, spindle assembly, and cleavage can be induced by 5-hydroxy triptamine (5-HT, serotonin), fertilization, or depolarization of the cell plasma membrane by treatment with KCl when cells are incubated in sea water. This requires the entry of calcium into the cell after treatment with these agents. Thus, the GVBD, or events subsequent to GVBD, can be used as indicators for hormone-receptor interactions (serotonin), effect of calcium channel blockers (resulting in a block of GVBD and subsequent events after treatment with KCL, 5HT or sperm), or agents that block fertilization generally. Therefore the present invention can be used not only to screen for antimitotic agents but also putative neuromodulators (serotonin inhibitors and the like), cardiomodulators, vasoactive agents (calcium channel blockers) and anti-fertility agents.\nUsing the whole egg assay described above, Spisula oocytes were treated with 0.25 μM HMN-176 or 0.001% DMSO and activated to undergo germinal vesicle (nucleus) breakdown (GVBD), and aster and spindle formation."}, "[1]": {"tested_on": "centrosomes in Spisula lysates", "experiment": "Lysate aster formation assay", "assay_type": "biochemical, Spisula solidissima", "settings": "0.025 uM, 0.25 uM or 2.5 uM", "procedure": "as §1, §2\nUsing the lysate aster formation assay described above, Spisula lysates were warmed to room temperature with lysates containing varying amounts of HMN-176 (0.025 uM, 0.25 uM or 2.5 uM) or DMSO (0.0001%, 0.001%, or 0.01%) as control. […]"}, "[2]": {"tested_on": "Isolated centrosomes reconstituted with sea urchin tubulin", "experiment": "Isolated centrosome assay (aster formation in defined media)", "assay_type": "biochemical, Spisula solidissima", "settings": "0.25 uM, 0.75 mg/mL sea urchin tubulin, time course of 25 minutes", "excerpt": "Centrosomes are isolated and prepared according to the methods of Vogel et al. (Vogel, J. M., Stearns, T., Rieder, C. L. and Palazzo, R. E. (1997) J. Cell Biol. 137: 193-202). Briefly, centrosomes are isolated from lysates by sucrose density-gradient centrifugation using a modification of the procedures known in the art for isolation of mammalian centrosomes. As such, lysates are thawed on ice, and aliquots are removed and tested for aster formation using hexylene glycol and polarized light microscopy as previously described. For each preparative gradient, 2-3 ml of crude lysate (˜9-18×10^6 centrosomes) are diluted with 0.60 vol of aster buffer (Aster Buffer: 20 mM sodium-Pipes, pH 7.2, 100 mM NaCl, 5.0 mM MgSO4), resuspended, and centrifuged (5,500 g/4° C./10 min) using a rotor (model JS 13.1; Beckman Instruments). […] Fractions (1.0 ml) are collected at 4° C. by bottom puncture of centrifuge tubes, and sucrose density is determined with the use of a hand-held refractometer.\nFractions are tested for centrosome content based on their ability to organize microtubules in the form of radial astral arrays when reconstituted with tubulin media. Thus, 10 μl aliquots from each fraction are diluted into 40 μl of tubulin media (0.3-0.7 mg/ml three-cycled sea urchin tubulin in RAB buffer containing 2 mM GTP) and incubated for 10 min at ambient temperature, and asters are counted using a hemacytometer viewed with a polarized light microscope. […]\nCentrosome assembly and function is crucial for the coordinated polymerization of microtubules that leads to spindle assembly and chromosome segregation during mitosis. […] The isolated centrosome assay is used to (1) induce the synchronous assembly of centrosomes in hundreds of grams of live Spisula oocytes or large quantities of oocyte lysates and is performed according to the methods disclosed by Palazzo, R. E., Vaisberg, E., Cole, R. W. and Rieder, C. […]"}, "sea urchin tubulin": {"tested_on": "sea urchin tubulin", "experiment": "Tubulin polymerization (turbidity) assay, sea urchin tubulin", "assay_type": "biochemical, Strongylocentrotus purpuratus", "settings": "0.025 uM, 0.25 uM and 2.5 uM", "procedure": "Sea urchin (Strongylocentrotus purpuratus) microtubules are prepared by three cycles of polymerization/depolymerization as previously described (Suprenant, K. A., and J. C. Marsh (1987) J. Cell Sci. 87: 71-84). Aliquots of ˜0.5-2.0 mg/ml protein are stored in 100 mM potassium-Pipes, pH 6.9, 1 mM EGTA, 5 mM MgSO4, 2 mM GTP (reassembly buffer) at −80° C. Three-cycled tubulin is diluted with reassembly buffer to 0.7 mg/ml for all functional assays unless otherwise stated.\n(§3) The tubulin polymerization assay used herein is performed according to the teachings of Vogel, J. M., Steams, T., Rieder, C. L. and Palazzo, R. E. (1997) J. Cell Biol. 137: 193-202 and Suprenant K A, Marsh J C. (1987) J Cell Sci. 87:71-84, each of which is incorported herein by reference in its entirety.\nThe effect of HMN-176 on sea urchin tubulin (0.75 mg/mL of S. purpuratus tubulin at 26° C.) polymerization in defined media was examined according to the methods described above. Sea urchin tubulin was isolated from Strongylocentrotus purpuratus oocytes by three cycles of microtubule polymerization and depolymerization. After the third cycle, microtubules were depolymerized, centrifuged to clarify, and the resulting supernatant adjusted to a concentration of 0.75 mg/ml protein. Samples were aliquoted and stored at −80° C.\nThe polymerization assay was used to test the effects of varying concentrations of HMN-176 (0.025 uM, 0.25 uM and 2.5 uM) along with varying amounts of DMSO for control (0.0001%, 0.001% and […]), respectively. Polymerization of untreated tubulin was also measured.\n(§4) Sea urchin and clam tubulin turbidity assays were performed at 30° C. and 0.7 mg/mL of tubulin. Doses of 0.025 uM, 0.25 uM and 2.5 uM of HMN-176 were compared to DMSO treatment, all of which were compared to untreated control."}, "clam tubulin": {"tested_on": "clam tubulin", "experiment": "Tubulin turbidity assay, clam tubulin", "assay_type": "biochemical, Spisula solidissima", "settings": "0.025 uM, 0.25 uM and 2.5 uM; 30° C., 0.7 mg/mL of tubulin", "procedure": "Three-cycled tubulin can also be prepared from Spisula oocyte lysates using a modification of the procedure described in Suprenant, K. A. (1989) Exp. Cell Res. 184: 167-180. Lysates are thawed and diluted with 0.8 vol of dilution buffer (100 mM potassium-Pipes, pH 7.2, 4 mM EGTA, 1 mM MgSO4, 1 mM DTT) containing 1 mM GTP, […] leupeptin, and 0.2 mM phenylmethylsulfonyl fluoride. Diluted lysate is then gently resuspended on ice and centrifuged (39,000 g/2° C./30 min) using a rotor (model JA20; Beckman Instruments Fullerton, Calif.) to clarify. Supernatants are collected and three-cycled tubulin prepared as previously described (Suprenant, K. A. (1989) Exp. Cell Res. 184: 167-180).\nas §3, §4"}, "CFPAC cells": {"tested_on": "CFPAC cells", "experiment": "Mammalian spindle phenotypes and time in mitosis in CFPAC cells", "assay_type": "cell-based, human", "procedure": "To determine the effect of HMN-176 on mammalian cell lines, the transformed human cell line, CFPAC, was used. CFPAC cells were derived from a ductal adenocarcinoma (liver metastasis) from a patient with cystic fibrosis (ATCC #CRL-1918). CFPAC cellswere treated for 2 hours with 0.5 uM DMSO or 0.5 uM HMN-176 (n=79). Cells were studied for progression through mitosis and cell cleavage using video microscopy, or prepared for immunofluorescence analysis with antibodies to visualize beta tubulin or treated with Hoechst 33342 (Sigma Aldrich, St. Louis, Mo. to visualize DNA and chromosomes."}, "human tumor cell lines": {"tested_on": "human tumor cell lines", "settings": "several human tumor cell lines; cited from earlier work"}, "[3]": {"settings": "0.75 mg/mL S. purpuratus tubulin at 26° C."}, "[4]": {"settings": "0.5 uM treatment for 2 hours, n = 79"}, "[5]": {"settings": "marine invertebrate gamete system, concentration not given"}},
  "data": [
    {"smiles": "COc1ccc(S(=O)(=O)N(C(C)=O)c2ccccc2/C=C/c2cc[n+]([O-])cc2)cc1", "note": "[HMN-214, (E)-4-{2-[2-(N-acetyl-N-[4-methoxybenzenesulfonyl]amino]stillbazole]}1-oxide]", "values": [
      {"measurement": "Antitumor activity", "setting": "mouse xenograft models", "result": "potent antitumor activity"}
    ]},
    {"smiles": "COc1ccc(S(=O)(=O)Nc2ccccc2/C=C/c2cc[n+]([O-])cc2)cc1", "note": "[HMN-176, (E)-4-{[2-N-[4-methoxybenzenesulfonyl]amino]stillbazole}1-oxide]", "values": [
      {"measurement": "Effect on germinal vesicle breakdown (GVBD)", "setting": "Spisula oocytes; 0.25 μM, activated Spisula oocytes, observed at 9-26 minutes", "result": "not affecting GVBD"},
      {"measurement": "Effect on spindle assembly in oocytes", "setting": "Spisula oocytes; 0.25 μM, activated Spisula oocytes, observed at 15 and 26 minutes", "result": "inhibit spindle assembly"},
      {"measurement": "Status of centrosomes (immunofluorescence alpha-/gamma-tubulin)", "setting": "[1]; lysates", "result": "centrosomes remained intact in all samples"},
      {"measurement": "Effect on aster formation in lysates", "setting": "[1]; lysates warmed to room temperature", "result": "blocked aster formation in the lysate aster formation assay in a dose dependent manner"},
      {"measurement": "Aster formation by isolated centrosomes in defined media", "setting": "[2]", "result": "no asters were formed"},
      {"measurement": "Background microtubule polymerization (not centrosome-associated)", "setting": "[2]", "result": "microtubule polymerization was observed in the background"},
      {"measurement": "Status of centrosomes (gamma-tubulin staining)", "setting": "[2]", "result": "Centrosomes remained intact in all samples"},
      {"measurement": "Effect on polymerization of tubulin", "setting": "sea urchin tubulin; [3]", "result": "only minor effect on the polymerization of tubulin"},
      {"measurement": "Effect on rate of microtubule polymerization", "setting": "sea urchin tubulin; [3]", "result": "may slightly lower the rate of microtubule polymerization"},
      {"measurement": "Effect on ultimate plateau of tubulin polymerization (turbidity)", "setting": "sea urchin tubulin; 0.75 mg/mL S. purpuratus tubulin at 26° C., by 25 minutes", "result": "does not affect the ultimate plateau"},
      {"measurement": "Effect on sea urchin tubulin turbidity", "setting": "sea urchin tubulin; 30° C., 0.7 mg/mL of tubulin", "result": "Very little to no effect"},
      {"measurement": "Effect on clam tubulin turbidity", "setting": "clam tubulin", "result": "Very little to no effect"},
      {"measurement": "Spindle types observed", "setting": "CFPAC cells; 0.5 uM for 2 hours", "result": "multipolar spindles with disorganized chromosomes"},
      {"measurement": "Spindle type: Bipolar, number of cells", "setting": "CFPAC cells; [4]", "result": 13},
      {"measurement": "Spindle type: Bipolar, percent of cells", "setting": "CFPAC cells; [4]", "result": 16, "unit": "%"},
      {"measurement": "Spindle type: Monopolar, number of cells", "setting": "CFPAC cells; [4]", "result": "Monopolar 0 (0%)"},
      {"measurement": "Spindle type: Monopolar, percent of cells", "setting": "CFPAC cells; [4]", "result": "Monopolar 0 (0%)"},
      {"measurement": "Spindle type: Multipolar, number of cells", "setting": "CFPAC cells; [4]", "result": 66},
      {"measurement": "Spindle type: Multipolar, percent of cells", "setting": "CFPAC cells; [4]", "result": 84, "unit": "%"},
      {"measurement": "Time that CFPAC cells were in mitosis", "setting": "CFPAC cells; 0.5 uM, video microscopy", "result": "147 ± 55", "unit": "min"}
    ]},
    {"smiles": "COc1cc2c(c(OC)c1OC)-c1ccc(OC)c(=O)cc1[C@@H](NC(C)=O)CC2", "note": "[Colchicine]", "values": [
      {"measurement": "Effect on GVBD", "setting": "Spisula oocytes; [5]", "result": "does not affect GVBD"},
      {"measurement": "Effect on spindle assembly", "setting": "Spisula oocytes; [5]", "result": "inhibits spindle assembly"},
      {"measurement": "Cytotoxicity", "setting": "human tumor cell lines", "result": "cytotoxic"}
    ]}
  ]
}
